{"source": "patent US20100010057A1", "about": "“THIAZOLE DERIVATIVES AS INHIBITORS OF P13 KINASE” (CHROMA THERAPEUTICS LTD., priority 2006, published 2010)", "key": {"THP-1 cells": {"tested_on": "THP-1 cells", "test": "LPS-stimulation of THP-1 cells, TNF-α release", "assay_type": "cell-based", "conditions": "Homo sapiens, LPS 1 μg/ml, 6 h, TNF-α by ELISA, IC50 range, read-out: Inhibitor activity versus THP-1 TNFα release", "description": "(C) LPS-Stimulation of THP-1 Cells\nTHP-1 cells are plated in 100 μl at a density of 4×10^4 cells/well in V-bottomed 96 well tissue culture treated plates and incubated at 37° C. in 5% CO2 for 16 h. 2 h after the addition of the inhibitor in 100 μl of tissue culture media, the cells are stimulated with LPS (E. coli strain 005:B5, Sigma) at a final concentration of 1 μg/ml and incubated at 37° C. in 5% CO2 for 6 h. TNF-α levels are measured from cell-free supernatants by sandwich ELISA (R&D Systems #QTA00B)\n(§1) For each of the assays (B), (C) and (D) above, IC50 values are allocated to one of three ranges as follows: […]"}, "PI3Kγ (human)": {"target": "PI3Kγ (human) (Homo sapiens, UniProt P48736)", "sequence (P48736 whole entry)": "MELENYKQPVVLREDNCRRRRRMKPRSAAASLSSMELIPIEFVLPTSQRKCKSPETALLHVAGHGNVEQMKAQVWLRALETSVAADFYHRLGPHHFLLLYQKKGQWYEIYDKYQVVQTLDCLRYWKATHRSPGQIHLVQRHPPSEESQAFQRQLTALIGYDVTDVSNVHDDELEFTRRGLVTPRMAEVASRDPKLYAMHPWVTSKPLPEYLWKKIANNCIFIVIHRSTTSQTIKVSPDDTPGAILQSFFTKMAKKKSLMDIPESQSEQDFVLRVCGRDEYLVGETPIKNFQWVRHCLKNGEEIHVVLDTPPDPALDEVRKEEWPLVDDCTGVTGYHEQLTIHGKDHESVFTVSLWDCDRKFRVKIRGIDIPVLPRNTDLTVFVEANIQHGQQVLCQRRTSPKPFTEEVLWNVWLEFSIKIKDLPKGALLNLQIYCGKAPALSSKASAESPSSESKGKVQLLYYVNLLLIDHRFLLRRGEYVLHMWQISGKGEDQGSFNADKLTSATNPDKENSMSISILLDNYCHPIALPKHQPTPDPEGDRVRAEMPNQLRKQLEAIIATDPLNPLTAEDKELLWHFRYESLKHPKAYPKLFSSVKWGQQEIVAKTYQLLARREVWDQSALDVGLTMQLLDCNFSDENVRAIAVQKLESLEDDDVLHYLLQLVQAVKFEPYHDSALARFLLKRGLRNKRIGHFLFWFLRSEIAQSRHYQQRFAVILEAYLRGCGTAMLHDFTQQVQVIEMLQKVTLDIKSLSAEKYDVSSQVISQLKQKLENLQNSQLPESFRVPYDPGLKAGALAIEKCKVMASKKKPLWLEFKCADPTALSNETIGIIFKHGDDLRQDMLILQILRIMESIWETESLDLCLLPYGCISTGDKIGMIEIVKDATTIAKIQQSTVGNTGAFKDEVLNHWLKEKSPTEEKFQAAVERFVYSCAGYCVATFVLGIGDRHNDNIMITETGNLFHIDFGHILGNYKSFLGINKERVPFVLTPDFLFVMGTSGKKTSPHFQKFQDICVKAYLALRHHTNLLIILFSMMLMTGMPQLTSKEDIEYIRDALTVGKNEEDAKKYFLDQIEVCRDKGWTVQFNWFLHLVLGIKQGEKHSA", "test": "Inhibition of PI3 kinase γ activity (HTRF)", "assay_type": "biochemical", "conditions": "ATP at or close to Km, IC50 range, read-out: Inhibitor activity versus PI3 Kinase γ", "description": "(B) Inhibition of PI3 Kinase V Activity\nIn a final reaction volume of 20 μl, PI3Kγ (human) is incubated in assay buffer containing 10 μM phosphatidylinositol-4,5-bisphosphate and MgATP (concentration as required). The reaction is initiated by the addition of the MgATP mix. After incubation for 30 minutes at room temperature, the reaction is stopped by the addition of 5 μl of stop solution containing EDTA and biotinylated phosphatidylinositol-3,4,5-trisphosphate. Finally, 5 μl of detection buffer is added, which contains europium-labelled anti-GST monoclonal antibody, GST-tagged GRP1 PH domain and streptavidin-allophycocyanin. The plate is then read in time-resolved fluorescence mode and the homogenous time-resolved fluorescence (HTRF) signal is determined according to the formula HTRF=10000×(Em665 nm/Em620 nm).\nDuplicate data points are generated from a ⅓ log dilution series of a stock solution of compound in DMSO. Nine dilutions steps are made from a top concentration of 10 μM, and a ‘no compound’ blank is included. The HTRF PI 3-Kinase assay is performed at an ATP concentration at, or close to, the Km. HTRF ratio data is transformed into % activity of controls and analysed with a four parameter sigmoidal dose-response (variable slope) application. QC criteria is based on Top, Bottom, Hill slope, r^2 and IC50, the concentration giving 50% inhibition, which is reported.\nas §1"}}, "note": "pIC50: −log10 of the molar value."}
{"compound": "Cc1nc(NC(=O)N[C@@H](COC(C)(C)C)C(=O)OC2CCCC2)sc1-c1ccc(Cl)c(S(C)(=O)=O)c1", "note": "[Example 4, Cyclopentyl O-tert-butyl-N-({5-[4-chloro-3-(methylsulfonyl)phenyl]-4-methyl-1,3-thiazol-2-yl}carbamoyl)-L-serinate]", "values": [{"measurement": "pIC50", "setting": "THP-1 cells", "result": "< 6.00"}, {"measurement": "pIC50", "setting": "PI3Kγ (human)", "result": "6.00 to 7.00"}]}
{"compound": "Cc1nc(NC(=O)CCCN[C@@H](CCC(=O)O)C(=O)OC2CCCC2)sc1-c1ccc(Cl)c(S(C)(=O)=O)c1", "note": "[Example 8, (4S)-4-{[4-({5-[4-Chloro-3-(methylsulfonyl)phenyl]-4-methyl-1,3-thiazol-2-yl}amino)-4-oxobutyl]amino}-5-(cyclopentyloxy)-5-oxopentanoic acid]", "values": [{"measurement": "pIC50", "setting": "PI3Kγ (human)", "result": "6.00 to 7.00"}]}
{"compound": "Cc1nc(NC(=O)CCCN[C@@H](C(=O)OC2CCCC2)c2ccccc2)sc1-c1ccc(Cl)c(S(C)(=O)=O)c1", "note": "[Example 9, Cyclopentyl (2R)-{[4-({5-[4-chloro-3-(methylsulfonyl)phenyl]-4-methyl-1,3-thiazol-2-yl}amino)-4-oxobutyl]amino}(phenyl)acetate]", "values": [{"measurement": "pIC50", "setting": "THP-1 cells", "result": "< 6.00"}, {"measurement": "pIC50", "setting": "PI3Kγ (human)", "result": "6.00 to 7.00"}]}
{"compound": "Cc1nc(NC(=O)CCCN[C@H](C(=O)OC2CCCC2)c2ccccc2)sc1-c1ccc(Cl)c(S(C)(=O)=O)c1", "note": "[Example 10, Cyclopentyl (2S)-{[4-({5-[4-chloro-3-(methylsulfonyl)phenyl]-4-methyl-1,3-thiazol-2-yl}amino)-4-oxobutyl]amino}(phenyl)acetate]", "values": [{"measurement": "pIC50", "setting": "THP-1 cells", "result": "< 6.00"}, {"measurement": "pIC50", "setting": "PI3Kγ (human)", "result": "6.00 to 7.00"}]}
{"compound": "Cc1nc(NC(=O)CCCN[C@@H](Cc2ccccc2)C(=O)OC2CCCC2)sc1-c1ccc(Cl)c(S(C)(=O)=O)c1", "note": "[Example 11, Cyclopentyl N-[4-({5-[4-chloro-3-(methylsulfonyl)phenyl]-4-methyl-1,3-thiazol-2-yl}amino)-4-oxobutyl]-L-phenylalaninate]", "values": [{"measurement": "pIC50", "setting": "THP-1 cells", "result": "< 6.00"}, {"measurement": "pIC50", "setting": "PI3Kγ (human)", "result": "< 6.00"}]}
{"compound": "Cc1nc(NC(=O)CCCN[C@@H](COC(C)(C)C)C(=O)OC2CCCC2)sc1-c1ccc(Cl)c(S(C)(=O)=O)c1", "note": "[Example 12, Cyclopentyl O-tert-butyl-N-[4-({5-[4-chloro-3-(methylsulfonyl)phenyl]-4-methyl-1,3-thiazol-2-yl}amino)-4-oxobutyl]-L-serinate]", "values": [{"measurement": "pIC50", "setting": "THP-1 cells", "result": "< 6.00"}, {"measurement": "pIC50", "setting": "PI3Kγ (human)", "result": "< 6.00"}]}
{"compound": "Cc1nc(NC(=O)CCCN[C@H](C(=O)OC2CCCC2)C2CCCCC2)sc1-c1ccc(Cl)c(S(C)(=O)=O)c1", "note": "[Example 13, Cyclopentyl (2S)-{[4-({5-[4-chloro-3-(methylsulfonyl)phenyl]-4-methyl-1,3-thiazol-2-yl}amino)-4-oxobutyl]amino}(cyclohexyl)acetate]", "values": [{"measurement": "pIC50", "setting": "THP-1 cells", "result": "< 6.00"}, {"measurement": "pIC50", "setting": "PI3Kγ (human)", "result": "< 6.00"}]}
{"compound": "Cc1nc(NC(=O)CCCN[C@@H](CC(C)C)C(=O)OC(C)(C)C)sc1-c1ccc(Cl)c(S(C)(=O)=O)c1", "note": "[Example 14, tert-Butyl N-[4-({5-[4-chloro-3-(methylsulfonyl)phenyl]-4-methyl-1,3-thiazol-2-yl}amino)-4-oxobutyl]-L-leucinate]", "values": [{"measurement": "pIC50", "setting": "THP-1 cells", "result": "< 6.00"}, {"measurement": "pIC50", "setting": "PI3Kγ (human)", "result": "< 6.00"}]}
{"compound": "Cc1nc(NC(=O)CCCN[C@@H](COC(C)(C)C)C(=O)OC(C)(C)C)sc1-c1ccc(Cl)c(S(C)(=O)=O)c1", "note": "[Example 15, tert-Butyl O-tert-butyl-N-[4-({5-[4-chloro-3-(methylsulfonyl)phenyl]-4-methyl-1,3-thiazol-2-yl}amino)-4-oxobutyl]-L-serinate]", "values": [{"measurement": "pIC50", "setting": "THP-1 cells", "result": "< 6.00"}, {"measurement": "pIC50", "setting": "PI3Kγ (human)", "result": "< 6.00"}]}
{"compound": "Cc1nc(NC(=O)CCN[C@@H](C)C(=O)OC2CCCC2)sc1-c1ccc(Cl)c(S(C)(=O)=O)c1", "note": "[Example 16, Cyclopentyl N-[3-({5-[4-chloro-3-(methylsulfonyl)phenyl]-4-methyl-1,3-thiazol-2-yl}amino)-3-oxopropyl]-L-alaninate]", "values": [{"measurement": "pIC50", "setting": "THP-1 cells", "result": "6.00 to 7.00"}, {"measurement": "pIC50", "setting": "PI3Kγ (human)", "result": "< 6.00"}]}
{"compound": "Cc1nc(NC(=O)N[C@@H](COC(C)(C)C)C(=O)O)sc1-c1ccc(Cl)c(S(C)(=O)=O)c1", "note": "[Example 30, O-tert-Butyl-N-({5-[4-chloro-3-(methylsulfonyl)phenyl]-4-methyl-1,3-thiazol-2-yl}carbamoyl)-L-serine]", "values": [{"measurement": "pIC50", "setting": "PI3Kγ (human)", "result": "< 6.00"}]}
{"compound": "Cc1nc(NC(=O)N[C@@H](Cc2ccccc2)C(=O)O)sc1-c1ccc(Cl)c(S(C)(=O)=O)c1", "note": "[Example 31, N-({5-[4-Chloro-3-(methylsulfonyl)phenyl]-4-methyl-1,3-thiazol-2-yl}carbamoyl)-L-phenylalanine]", "values": [{"measurement": "pIC50", "setting": "PI3Kγ (human)", "result": "< 6.00"}]}
{"compound": "Cc1nc(NC(=O)CCCN[C@@H](CC(C)C)C(=O)O)sc1-c1ccc(Cl)c(S(C)(=O)=O)c1", "note": "[Example 32, N-4-({5-[4-Chloro-3-(methylsulfonyl)phenyl-4-methyl-1,3-thiazol-2-yl}amino)-4-oxobutyl]-L-leucine]", "values": [{"measurement": "pIC50", "setting": "PI3Kγ (human)", "result": "< 6.00"}]}
{"compound": "Cc1nc(NC(=O)CCCN[C@@H](CCC(=O)O)C(=O)O)sc1-c1ccc(Cl)c(S(C)(=O)=O)c1", "note": "[Example 33, N-[4-({5-[4-Chloro-3-(methylsulfonyl)phenyl]-4-methyl-1,3-thiazol-2-yl}amino)-4-oxobutyl]-L-glutamic acid]", "values": [{"measurement": "pIC50", "setting": "PI3Kγ (human)", "result": "< 6.00"}]}
{"compound": "Cc1nc(NC(=O)CCCN[C@@H](C(=O)O)c2ccccc2)sc1-c1ccc(Cl)c(S(C)(=O)=O)c1", "note": "[Example 34, (2R)-{[4-({5-[4-Chloro-3-(methylsulfonyl)phenyl]-4-methyl-1,3-thiazol-2-yl}amino)-4-oxobutyl]amino}(phenyl)acetic acid]", "values": [{"measurement": "pIC50", "setting": "PI3Kγ (human)", "result": "< 6.00"}]}
{"compound": "Cc1nc(NC(=O)CCCN[C@H](C(=O)O)c2ccccc2)sc1-c1ccc(Cl)c(S(C)(=O)=O)c1", "note": "[Example 35, (2S)-{[4-({5-[4-Chloro-3-(methylsulfonyl)phenyl]-4-methyl-1,3-thiazol-2-yl}amino)-4-oxobutyl]amino}(phenyl)acetic acid]", "values": [{"measurement": "pIC50", "setting": "PI3Kγ (human)", "result": "< 6.00"}]}
{"compound": "Cc1nc(NC(=O)CCCN[C@@H](Cc2ccccc2)C(=O)O)sc1-c1ccc(Cl)c(S(C)(=O)=O)c1", "note": "[Example 36, N-[4-({5-[4-Chloro-3-(methylsulfonyl)phenyl]-4-methyl-1,3-thiazol-2-yl}amino)-4-oxobutyl]-L-phenylalanine]", "values": [{"measurement": "pIC50", "setting": "PI3Kγ (human)", "result": "< 6.00"}]}
{"compound": "Cc1nc(NC(=O)CCCN[C@@H](COC(C)(C)C)C(=O)O)sc1-c1ccc(Cl)c(S(C)(=O)=O)c1", "note": "[Example 37, O-tert-Butyl-N-[4-({5-[4-chloro-3-(methylsulfonyl)phenyl]-4-methyl-1,3-thiazol-2-yl}amino)-4-oxobutyl]-L-serine]", "values": [{"measurement": "pIC50", "setting": "PI3Kγ (human)", "result": "< 6.00"}]}
{"compound": "Cc1nc(NC(=O)CCN[C@@H](C)C(=O)O)sc1-c1ccc(Cl)c(S(C)(=O)=O)c1", "note": "[Example 38, N-[3-({5-[4-Chloro-3-(methylsulfonyl)phenyl]-4-methyl-1,3-thiazol-2-yl}amino)-3-oxopropyl]-L-alanine]", "values": [{"measurement": "pIC50", "setting": "PI3Kγ (human)", "result": "< 6.00"}]}
{"compound": "Cc1nc(NCCCN[C@@H](CC(C)C)C(=O)O)sc1-c1ccc(Cl)c(S(C)(=O)=O)c1", "note": "[Example 39, N-[3-({5-[4-Chloro-3-(methylsulfonyl)phenyl]-4-methyl-1,3-thiazol-2-yl}amino)propyl]-L-leucine]", "values": [{"measurement": "pIC50", "setting": "PI3Kγ (human)", "result": "< 6.00"}]}
{"compound": "Cc1nc(NCC2CCC(N[C@@H](CC(C)C)C(=O)O)CC2)sc1-c1ccc(Cl)c(S(C)(=O)=O)c1", "note": "(stereo partly drawn) [Example 40, N-{4-[({5-[4-Chloro-3-(methylsulfonyl)phenyl]-4-methyl-1,3-thiazol-2-yl}amino)methyl]cyclohexyl}-L-leucine]", "values": [{"measurement": "pIC50", "setting": "PI3Kγ (human)", "result": "< 6.00"}]}
{"compound": "CC(=O)Nc1nc(C)c(-c2ccc(Cl)c(S(=O)(=O)N[C@@H](C)C(=O)O)c2)s1", "note": "[Example 41, N-{[5-(2-Acetamido-4-methyl-1,3-thiazol-5-yl)-2-chlorophenyl]sulfonyl}-L-alanine]", "values": [{"measurement": "pIC50", "setting": "PI3Kγ (human)", "result": "< 6.00"}]}
{"compound": "CC(=O)Nc1nc(C)c(-c2ccc(Cl)c(S(=O)(=O)N[C@@H](COC(C)(C)C)C(=O)O)c2)s1", "note": "[Example 42, N-{[5-(2-Acetamido-4-methyl-1,3-thiazol-5-yl)-2-chlorophenyl]sulfonyl}-O-tert-butyl-L-serine]", "values": [{"measurement": "pIC50", "setting": "PI3Kγ (human)", "result": "< 6.00"}]}
{"compound": "CC(=O)Nc1nc(C)c(-c2ccc(Cl)c(S(=O)(=O)NCCN[C@@H](CC(C)C)C(=O)O)c2)s1", "note": "[Example 43, N-[2-({[5-(2-Acetamido-4-methyl-1,3-thiazol-5-yl)-2-chlorophenyl]sulfonyl}amino)ethyl]-L-leucine]", "values": [{"measurement": "pIC50", "setting": "PI3Kγ (human)", "result": "< 6.00"}]}
{"compound": "CC(=O)Nc1nc(C)c(-c2ccc(Cl)c(S(=O)(=O)N[C@@H](CO)C(=O)O)c2)s1", "note": "[Example 44, N-{[5-(2-Acetamido-4-methyl-1,3-thiazol-5-yl)-2-chlorophenyl]sulfonyl}-L-serine]", "values": [{"measurement": "pIC50", "setting": "PI3Kγ (human)", "result": "< 6.00"}]}
{"compound": "Cc1nc(NC(=O)CCCN[C@@H](CO)C(=O)O)sc1-c1ccc(Cl)c(S(C)(=O)=O)c1", "note": "[Example 45, N-[4-({5-[4-Chloro-3-(methylsulfonyl)phenyl]-4-methyl-1,3-thiazol-2-yl}amino)-4-oxobutyl]-L-serine]", "values": [{"measurement": "pIC50", "setting": "PI3Kγ (human)", "result": "< 6.00"}]}
